Laboratory results: patent publication US9497963B2, “Methods and compositions for control of gypsy moth, Lymantria dispar” (Simon Fraser University, priority 2008, dated 2016)

The compounds below were run on male gypsy moth antenna (assay: Coupled gas chromatographic-electroantennographic detection (GC-EAD)). Settings: EAD peak size and shape (sharp/broad).
Parameters: species or system Lymantria dispar
Excerpt: In GC-EAD assays, the analyte is processed by gas chromatography (GC). The column effluent is split, such that molecules of each chromatographic peak arrive simultaneously at the flame ionization detector of the GC and at an anectomized but otherwise intact insect antenna as the biological detector. This procedure detects specific compounds in the analyte that elicit an electrical potential from the antenna.
For GC-EAD recordings, an antenna was carefully dislodged from a male moth's head, and the antennal base placed into the opening of a glass capillary electrode (0.58 mm ID×65 mm length) (A-M Systems, Inc., Carlsborg, Wash., USA) filled with saline solution. The tip of the antenna was removed by spring microscissors (Fine Science Tools Inc., North Vancouver, British Columbia, Canada) and then placed into the opening of the recording electrode mounted on a portable micromanipulator and positioned in front of a constant stream of warm air (Praxair Canada Inc., Mississauga, Ontario, Canada) which delivered the GC column eluent. […] Identical retention times of compounds detected by the flame ionization detector of the GC and by the insect antenna allowed assignment of antennal responses to specific compounds in the eluent.

SMILES	GC-EAD activity
CCOc1ccccc1OC [3a{1,2}, 1-ethoxy-2-methoxy benzene]	++ sharp
CCCOc1ccccc1OC [3a{1,3}, 1-methoxy-2-propoxy benzene]	+ sharp
CCCCOc1ccccc1OC [3a{1,4}, 1-butoxy-2-methoxy benzene]	Trace
COc1ccccc1OCCC(C)C [3a{1,5}, 1-methoxy-2-(3-methyl-butoxy) benzene]	+ broad
C=CCOc1ccccc1OC [3a{1,6}, 1-allyloxy-2-methoxy benzene]	+ sharp
CCCOc1ccccc1OCC [3a{2,3}, 1-ethoxy-2-propoxy benzene]	+ sharp
CCCCOc1ccccc1OCC [3a{2,4}, 1-ethoxy-2-butoxy benzene]	++ sharp
CCOc1ccccc1OCCC(C)C [3a{2,5}, 1-ethoxy-2-(3-methyl-butoxy) benzene]	++ sharp
C=CCOc1ccccc1OCC [3a{2,6}, 1-allyloxy-2-ethoxy benzene]	+ broad
CCCCOc1ccccc1OCCC [3a{3,4}, 1-butoxy-2-propoxy benzene]	++ sharp
CCCOc1ccccc1OCCC(C)C [3a{3,5}, 1-(3-methyl-butoxy)-2-propoxy benzene]	+ broad
C=CCOc1ccccc1OCCC [3a{3,6}, 1-allyloxy-2-propoxybenzene]	++ broad
CCCCOc1ccccc1OCCC(C)C [3a{4,5}, 1-butoxy-2-(3-methyl-butoxy) benzene]	+ broad
C=CCOc1ccccc1OCCCC [3a{4,6}, 1-allyloxy-2-butoxybenzene]	++ broad
C=CCOc1ccccc1OCCC(C)C [3a{5,6}, 1-allyloxy-2-isopentoxybenzene]	+ broad
CCOc1cccc(OC)c1 [3b{1,2}, 1-ethoxy-3-methoxy benzene]	Trace
CCCOc1cccc(OC)c1 [3b{1,3}, 1-methoxy-3-propoxy benzene]	Trace
CCCCOc1cccc(OC)c1 [3b{1,4}, 1-butoxy-3-methoxy benzene]	None
COc1cccc(OCCC(C)C)c1 [3b{1,5}, 1-methoxy-3-(3-methyl-butyloxy) benzene]	None
CCCOc1cccc(OCC)c1 [3b{2,3}, 1-ethoxy-3-propoxy benzene]	None
CCCCOc1cccc(OCC)c1 [3b{2,4}, 1-butoxy-3-ethoxy benzene]	None
CCOc1cccc(OCCC(C)C)c1 [3b{2,5}, 1-ethoxy-3-(3-methyl-butyloxy) benzene]	None
CCCCOc1cccc(OCCC)c1 [3b{3,4}, 1-butoxy-3-propoxy benzene]	None
CCCOc1cccc(OCCC(C)C)c1 [3b{3,5}, 1-(3-methyl-butyloxy)-3-propoxy benzene]	None
CCCCOc1cccc(OCCC(C)C)c1 [3b{4,5}, 1-butoxy-3-(3-methyl-butyloxy) benzene]	None
C=CCOc1ccc(OC)cc1 [3c{1,6}, 1-allyloxy-4-methoxybenzene]	Trace
C=CCOc1ccc(OCC)cc1 [3c{2,6}, 1-allyloxy-4-ethoxybenzene]	Trace
C=CCOc1ccc(OCCCC)cc1 [3c{4,6}, 1-allyloxy-4-butoxy benzene]	None
C=CCOc1ccc(OCCC(C)C)cc1 [3c{5,6}, 1-allyloxy-4-isopentoxybenzene]	None

Same assay, conditions: male gypsy moth antenna; starting phenols 4, diethers 5 and dihydropyrans 6c from Claisen rearrangement chemistry

SMILES	GC-EAD activity
C=CCc1cccc(OC)c1O [4a{1}, 2-allyl-6-methoxy phenol]	++ sharp
C=CCc1cccc(OCC)c1O [4a{2}, 2-allyl-6-ethoxy phenol]	+ sharp
C=CCc1cccc(OCCC)c1O [4a{3}, 2-allyl-6-propoxy phenol]	+ broad
C=CCc1cccc(OCCCC)c1O [4a{4}, 2-allyl-6-butoxy phenol]	Trace
C=CCc1cccc(OCCC(C)C)c1O [4a{5}, 2-allyl-6-(3-methyl-butoxy) phenol]	Trace
C=CCc1cc(OC)ccc1O [4c{1}, 2-allyl-4-methoxy phenol]	++ sharp
C=CCc1cc(OCC)ccc1O [4c{2}, 2-allyl-4-ethoxy phenol]	+ sharp
C=CCc1cc(OCCC)ccc1O [4c{3}, 2-allyl-4-propoxy phenol]	Trace
C=CCc1cc(OCCCC)ccc1O [4c{4}, 2-allyl-4-butoxy phenol]	None
C=CCc1cc(OCCC(C)C)ccc1O [4c{5}, 2-allyl-4-(3-methyl-butoxy) phenol]	None
C=CCc1cccc(OC)c1OCC [5a{2, 1}]	Trace
C=CCc1cccc(OC)c1OCCC [5a{3, 1}]	+ broad
C=CCc1cccc(OCC)c1OCCC [5a{3, 2}]	+ broad
C=CCc1cccc(OC)c1OCCCC [5a{4, 1}]	None
C=CCc1cccc(OCCC)c1OCCCC [5a{4, 3}]	None
C=CCc1cccc(OC)c1OCCC(C)C [5a{5, 1}]	Trace
C=CCc1cccc(OCC)c1OCCC(C)C [5a{5, 2}]	None
C=CCc1cccc(OCCC)c1OCCC(C)C [5a{5, 3}]	None
C=CCc1cccc(OCCCC)c1OCCC(C)C [5a{5, 4}]	None
C=CCOc1cccc(CC=C)c1OCCC(C)C [5a{5, 6}]	None
COc1ccc2c(c1)CC(C)O2 (stereo not drawn) [6c{1}, 5-methoxy-2-methyl-2,3-dihydro benzofuran]	+ sharp
CCOc1ccc2c(c1)CC(C)O2 (stereo not drawn) [6c{2}, 5-ethoxy-2-methyl-2,3-dihydro benzofuran]	Trace
CCCOc1ccc2c(c1)CC(C)O2 (stereo not drawn) [6c{3}, 5-propoxy-2-methyl-2,3-dihydro benzofuran]	Trace
CCCCOc1ccc2c(c1)CC(C)O2 (stereo not drawn) [6c{4}, 5-butoxy-2-methyl-2,3-dihydro benzofuran]	None
CC(C)CCOc1ccc2c(c1)CC(C)O2 (stereo not drawn) [6c{5}, 5-(3-methyl-butoxy)-2-methyl-2,3-dihydro benzofuran]	None
